Experimental data taken from patent US9758537B2 (Achillion Pharmaceuticals, Inc., priority 2014, dated 2017).

Each molecule was assayed against Human factor D (Homo sapiens (Human), UniProt P00746) (assay: Human Factor D Assay). Conditions: human factor D 80 nM, substrate Z-L-Lys-SBzl, DTNB, OD405.
Human factor D, sequence (P00746 26-253): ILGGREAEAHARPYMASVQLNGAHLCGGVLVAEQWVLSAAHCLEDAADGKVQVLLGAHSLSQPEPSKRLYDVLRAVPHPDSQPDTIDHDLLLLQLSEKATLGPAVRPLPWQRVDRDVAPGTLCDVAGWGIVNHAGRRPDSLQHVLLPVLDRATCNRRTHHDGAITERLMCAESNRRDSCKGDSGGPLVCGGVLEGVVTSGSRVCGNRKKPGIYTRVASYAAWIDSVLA
Type: biochemical
Method: Human factor D (purified from human serum, Complement Technology, Inc.) at 80 nM final concentration is incubated with test compound at various concentrations for 5 minutes at room temperature in 50 mM Tris, 1M NaCl, pH 7.5. A synthetic substrate Z-L-Lys-SBzl and DTNB (Ellman's reagent) are added to final concentrations of 10 μM each. The increase in color is recorded at OD405 nm in a microplate in kinetic mode over 30 minutes with 30 second time points in a […]. IC50 values are calculated by non-linear regression from the percentage of inhibition of complement factor D activity as a function of test compound concentration.
In the case of `CC(=O)c1cn(CC(=O)N2C[C@H](F)C[C@H]2C(=O)Nc2cccc(SC(F)(F)F)c2)c2cc(O)ccc12` [Compound 48, (2S,4R)-1-(2-(3-acetyl-6-hydroxy-1H-indol-1-yl)acetyl)-4-fluoro-N-(3-(trifluoromethylthio)phenyl)pyrrolidine-2-carboxamide], the IC50 is reported as < 1000 nM.
With `CC(=O)Nc1cn(CC(=O)N2C[C@H](F)C[C@H]2C(=O)NCc2cccc(Cl)c2F)c2ccccc12` [Compound 47, (2S,4R)-1-(2-(3-acetamido-1H-indol-1-yl)acetyl)-N-(3-chloro-2-fluorobenzyl)-4-fluoropyrrolidine-2-carboxamide] the IC50 was < 1000 nM.
With `CC(=O)c1cn(CC(=O)N2C[C@H](F)C[C@H]2C(=O)Nc2cccc(-c3ccccc3Cl)c2F)c2c(C#N)cccc12` [Compound 79, (2S,4R)-1-(2-(3-acetyl-7-cyano-1H-indol-1-yl)acetyl)-N-(2′-chloro-2-fluorobiphenyl-3-yl)-4-fluoropyrrolidine-2-carboxamide] the IC50 was < 1000 nM.
With `CC(=O)c1cn(CC(=O)N2C[C@H](F)C[C@H]2C(=O)Nc2cccc(-c3ccccc3Cl)c2F)c2cccc(C#N)c12` [Compound 97, (2S,4R)-1-(2-(3-acetyl-4-cyano-1H-indol-1-yl)acetyl)-N-(2′-chloro-2-fluorobiphenyl-3-yl)-4-fluoropyrrolidine-2-carboxamide] the IC50 was < 1000 nM.
`CC(=O)c1cn(CC(=O)N2[C@H](C(=O)NCc3cccc(Cl)c3F)C[C@@H]3CCCC[C@@H]32)c2ccccc12` [Compound 1, (2S,3aS,7aS)-1-(2-(3-acetyl-1H-indol-1-yl)acetyl)-N-(3-chloro-2-fluorobenzyl)octahydro-1H-indole-2-carboxamide] was tested, and the IC50 was < 1000 nM.
In the case of `CC(=O)n1cc(NC(=O)[C@@H]2C[C@@H](F)CN2C(=O)NCc2cccc(Cl)c2F)c2ccccc21` [Compound 3, (2S,4R)-N2-(1-acetyl-1H-indol-3-yl)-N1-(3-chloro-2-fluorobenzyl)-4-fluoropyrrolidine-1,2-dicarboxamide], the IC50 is reported as > 10000 nM.
`CC(=O)c1cn(CC(=O)N2C[C@H](F)C[C@H]2C(=O)Nc2cccc(Br)n2)c2ccc(C3(NC(=O)c4ncccn4)CC3)cc12` [Compound 119, N-(1-(3-acetyl-1-(2-((2S,4R)-2-(6-bromopyridin-2-ylcarbamoyl)-4-fluoropyrrolidin-1-yl)-2-oxoethyl)-1H-indol-5-yl)cyclopropyl)pyrimidine-2-carboxamide] was tested, and the IC50 was < 1000 nM.
For `O=C(NCc1cccc(Cl)c1F)[C@@H]1C[C@@H](F)CN1C(=O)c1csc(-c2cccnc2)n1` [Compound 50, (2S,4R)-N-(3-chloro-2-fluorobenzyl)-4-fluoro-1-(2-(pyridin-3-yl)thiazole-4-carbonyl)pyrrolidine-2-carboxamide], the IC50 was > 10000 nM.
With `NC(=O)c1nn(CC(=O)N2C[C@H](F)C[C@H]2C(=O)Nc2cccc(-c3ccc(F)c(F)c3Cl)c2F)c2ccccc12` [Compound 92, 1-(2-((2S,4R)-2-(2′-chloro-2,3′,4′-trifluorobiphenyl-3-ylcarbamoyl)-4-fluoropyrrolidin-1-yl)-2-oxoethyl)-1H-indazole-3-carboxamide] the IC50 was < 1000 nM.
In the case of `NC(=O)c1nn(CC(=O)N2C[C@H](F)C[C@H]2C(=O)Nc2cccc(-c3cc(F)cc(F)c3Cl)c2F)c2ccccc12` [Compound 94, 1-(2-((2S,4R)-2-(2′-chloro-2,3′,5′-trifluorobiphenyl-3-ylcarbamoyl)-4-fluoropyrrolidin-1-yl)-2-oxoethyl)-1H-indazole-3-carboxamide], the IC50 is reported as < 1000 nM.
With `CC(=O)n1cc(NC(=O)N2C[C@H](F)C[C@H]2C(=O)NS(=O)(=O)c2cccc(Cl)c2F)c2ccccc21` [Compound 7, (2S,4R)-N1-(1-acetyl-1H-indol-3-yl)-N2-(3-chloro-2-fluorophenylsulfonyl) - 4-fluoropyrrolidine-1,2-dicarboxamide] the IC50 was > 10000 nM.
In the case of `CC(=O)c1cn(CC(=O)N2C[C@H](F)C[C@H]2C(=O)Nc2cccc(Br)n2)c2ccc(C3(NC(=O)OC(C)(C)C)CC3)cc12` [Compound 123, tert-butyl 1-(3-acetyl-1-(2-((2S,4R)-2-(6-bromopyridin-2-ylcarbamoyl)-4-fluoropyrrolidin-1-yl)-2-oxoethyl)-1H-indol-5-yl)cyclopropylcarbamate], the IC50 is reported as < 1000 nM.
For `CC(=O)c1cn(CC(=O)N2C[C@H](F)C[C@H]2C(=O)Nc2cccc(-c3ccccc3Cl)c2F)c2c(-c3ccc(Cl)nc3)cccc12` [Compound 112, (2S,4R)-1-(2-(3-acetyl-7-(6-chloropyridin-3-yl)-1H-indol-1-yl)acetyl)-N-(2′-chloro-2-fluorobiphenyl-3-yl)-4-fluoropyrrolidine-2-carboxamide], the IC50 was < 1000 nM.
For `CC(=O)c1cn(CC(=O)N2C[C@H](F)C[C@H]2Cn2cc(-c3ccc(F)cc3)nn2)c2ccccc12` [Compound 27, 2-(3-acetyl-1H-indol-1-yl)-1-((2S,4R)-4-fluoro-2-((4-(4-fluorophenyl)-1H-1,2,3-triazol-1-yl)methyl)pyrrolidin-1-yl)ethanone], the IC50 was > 10000 nM.
In the case of `O=C(NCc1cccc(Cl)c1F)[C@@H]1C[C@@H](F)CN1C(=O)Cn1nc(I)c2ccncc21` [Compound 52, (2S,4R)-N-(3-chloro-2-fluorobenzyl)-4-fluoro-1-(2-(3-iodo-1H-pyrazolo[3,4-c]pyridin-1-yl)acetyl)pyrrolidine-2-carboxamide], the IC50 is reported as < 1000 nM.
With `CC(=O)c1ccc(Cl)c(-c2cccc(NC(=O)[C@@H]3C[C@@H](F)CN3C(=O)Cn3nc(C(N)=O)c4ccccc43)c2F)c1` [Compound 117, 1-(2-((2S,4R)-2-(5′-acetyl-2′-chloro-2-fluorobiphenyl-3-ylcarbamoyl)-4-fluoropyrrolidin-1-yl)-2-oxoethyl)-1H-indazole-3-carboxamide] the IC50 was < 1000 nM.
In the case of `CC(C)(C)OC(=O)N[C@@H](Cc1c[nH]c2ccccc12)C(=O)N1C[C@H](F)C[C@H]1C(=O)NCc1cccc(Cl)c1F` [Compound 38, tert-butyl (S)-1-((2S,4R)-2-(3-chloro-2-fluorobenzylcarbamoyl)-4-fluoropyrrolidin-1-yl)-3-(1H-indol-3-yl)-1-oxopropan-2-ylcarbamate], the IC50 is reported as > 10000 nM.
With `NC(=O)n1cc(NC(=O)C2=C(C(=O)NCc3cccc(Cl)c3F)CCC2)c2ccccc21` [Compound 31, N1-(1-carbamoyl-1H-indol-3-yl)-N2-(3-chloro-2-fluorobenzyl)cyclopent-1-ene-1,2-dicarboxamide] the IC50 was > 10000 nM.
With `CC(=O)Nc1cccc2c1c(C(C)=O)cn2CC(=O)N1C[C@H](F)C[C@H]1C(=O)Nc1cccc(-c2ccccc2Cl)c1F` [Compound 91, (2S,4R)-1-(2-(4-acetamido-3-acetyl-1H-indol-1-yl)acetyl)-N-(2′-chloro-2-fluorobiphenyl-3-yl)-4-fluoropyrrolidine-2-carboxamide] the IC50 was > 10000 nM.
For `CC(=O)n1cc(NC(=O)[C@@H]2C[C@H](F)CN2C(=O)NCc2cccc(Cl)c2F)c2ccccc21` [Compound 4, (2S,4S)-N2-(1-acetyl-1H-indol-3-yl)-N1-(3-chloro-2-fluorobenzyl)-4-fluoropyrrolidine-1,2-dicarboxamide], the IC50 was > 10000 nM.
`C=C(F)c1nn(CC(=O)N2C[C@H](F)C[C@H]2C(=O)NCc2cccc(Cl)c2F)c2cnccc12` [Compound 74, (2S,4R)-N-(3-chloro-2-fluorobenzyl)-4-fluoro-1-(2-(3-(1-fluorovinyl)-1H-pyrazolo[3,4-c]pyridin-1-yl)acetyl)pyrrolidine-2-carboxamide] was tested, and the IC50 was < 1000 nM.
